Literature values, collected in patent US9623004B2, “Administration of a therapeutic amount of genistein to mitigate erectile dysfunction resulting from radiation therapy for prostate cancer only throughout a defined administration period commencing shortly before and concluding after radiation therapy” (Humanetics Corporation, priority 2013, dated 2017).

How the values were obtained:
[1] = not given; remark: listed apart in the source

Question: For `O=c1c(-c2ccc(O)cc2)coc2cc(O)cc(O)c12` [Genistein, 5,7-dihydroxy-3-(4-hydroxyphenyl)-chromen-4-one], which solubility in water is on record?
Answer: virtually insoluble in water

Question: What about the “beneficial effects in other clinical trials” value [1] of the same molecule?
Answer: no beneficial effects
